Reference: US9113629B2, “4-amino-6-(4-substituted-phenyl)-picolinates and 6-amino-2-(4-substituted-phenyl)-pyrimidine-4-carboxylates and their use as herbicides” (DOW AGROSCIENCES LLC, priority 2013, dated 2015)
Where two headings read alike, the source gives them in different places.

Assays:
[1] = test system: Key Broadleaf Weed and Crop Species; experiment: Post-emergent Test II herbicidal activity (Table 5); format: in vivo; settings: post-emergence, 336 h, post-emergent, 14 days after application; for pest or weed control at 70 g/ha: 70 g ai/ha; for pest or weed control at 140 g/ha: 140 g ai/ha
Summary of the method: (§1)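 Injury was rated visually 14 d after treatment on a 0–100% scale against untreated controls. Test compounds, formulated with crop oil concentrate and surfactant and serially diluted down to 1/16× of the top rate, were applied by track sprayer at 187 L/ha onto first- to second-true-leaf seedlings.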

[2] = test system: Key Grass and Sedge Weeds as well as Grass Crops; experiment: Post-emergent Test II herbicidal activity (Table 6); format: in vivo; settings: post-emergence, 336 h; for pest or weed control at 70 g/ha: application rate 70 g ai/ha; for pest or weed control at 140 g/ha: application rate 140 g ai/ha
Summary of the method: as §1

[3] = ABUTH: velvetleaf (Abutilon theophrasti), read-out: Visual Growth Reduction (%) 14 Days After Application ABUTH
[4] = AMARE: redroot pigweed (Amaranthus retroflexus), read-out: Visual Growth Reduction (%) 14 Days After Application AMARE
[5] = BRSNN: oilseed-rape, canola (Brassica napus), read-out: Visual Growth Reduction (%) 14 Days After Application BRSNN
[6] = CHEAL: lambsquarters (Chenopodium album), read-out: Visual Growth Reduction (%) 14 Days After Application CHEAL
[7] = EPHHL: wild poinsettia (Euphorbia heterophylla), read-out: Visual Growth Reduction (%) 14 Days After Application EPHHL
[8] = HELAN: sunflower (Helianthus annuus), read-out: Visual Growth Reduction (%) 14 Days After Application HELAN
[9] = VIOTR: wild pansy (Viola tricolor), read-out: Visual Growth Reduction (%) 14 Days After Application VIOTR
[10] = Triticum aestivum, TRZSS (wheat), read-out: Visual Growth Reduction (%) 14 Days After Application, TRZSS
[11] = CYPES: yellow nutsedge (Cyperus esculentus), read-out: Visual Growth Reduction (%) 14 Days After Application, CYPES
[12] = DIGSA: crabgrass (Digitaria sanguinalis), read-out: Visual Growth Reduction (%) 14 Days After Application, DIGSA
[13] = ECHCG: barnyardgrass (Echinochloa crus-galli), read-out: Visual Growth Reduction (%) 14 Days After Application, ECHCG
[14] = ORYSA: rice (Oryza sativa), read-out: Visual Growth Reduction (%) 14 Days After Application, ORYSA
[15] = SETFA: giant foxtail (Setaria faberi), read-out: Visual Growth Reduction (%) 14 Days After Application, SETFA
[16] = SORVU: grain sorghum (Sorghum vulgare), read-out: Visual Growth Reduction (%) 14 Days After Application, SORVU
[17] = ZEAMX: maize, corn (Zea mays), read-out: Visual Growth Reduction (%) 14 Days After Application, ZEAMX

Structure (SMILES): Nc1c(Cl)c(C(=O)O)nc(-c2ccc(Br)c(F)c2)c1Cl [Compound 43, 4-Amino-6-(4-bromo-3-fluorophenyl)-3,5-dichloropicolinic acid]
- pest or weed control at 70 g/ha [1, 3]: 85 to 94%
- pest or weed control at 140 g/ha [1, 3]: 85 to 94%
- pest or weed control at 70 g/ha [1, 4]: 95 to 100%
- pest or weed control at 140 g/ha [1, 4]: 95 to 100%
- pest or weed control at 70 g/ha [1, 5]: 95 to 100%
- pest or weed control at 140 g/ha [1, 5]: 95 to 100%
- pest or weed control at 70 g/ha [1, 6]: 75 to 84%
- pest or weed control at 140 g/ha [1, 6]: 75 to 84%
- pest or weed control at 70 g/ha [1, 7]: 60 to 74%
- pest or weed control at 140 g/ha [1, 7]: 60 to 74%
- pest or weed control at 70 g/ha [1, 8]: 95 to 100%
- pest or weed control at 140 g/ha [1, 8]: 95 to 100%
- pest or weed control at 70 g/ha [1, 9]: 95 to 100%
- pest or weed control at 140 g/ha [1, 9]: 95 to 100%
- pest or weed control at 70 g/ha [2, 10]: 60 to 74%
- pest or weed control at 140 g/ha [2, 10]: 60 to 74%
- pest or weed control at 70 g/ha [2, 11]: 95 to 100%
- pest or weed control at 140 g/ha [2, 11]: 95 to 100%
- pest or weed control at 70 g/ha [2, 12]: 75 to 84%
- pest or weed control at 140 g/ha [2, 12]: 75 to 84%
- pest or weed control at 70 g/ha [2, 13]: 75 to 84%
- pest or weed control at 140 g/ha [2, 13]: 60 to 74%
- pest or weed control at 70 g/ha [2, 14]: 0 to 29%
- pest or weed control at 140 g/ha [2, 14]: 30 to 44%
- pest or weed control at 70 g/ha [2, 15]: 60 to 74%
- pest or weed control at 140 g/ha [2, 15]: 60 to 74%
- pest or weed control at 70 g/ha [2, 16]: 95 to 100%
- pest or weed control at 140 g/ha [2, 16]: 95 to 100%
- pest or weed control at 70 g/ha [2, 17]: 75 to 84%
- pest or weed control at 140 g/ha [2, 17]: 75 to 84%
